One series has as its system rabbit. The conditions noted are these: Prenatal developmental toxicity study; new zealand white; Oral; Gavage/Intubation; dose end: 18 GD; group: maternal; systemic / in life observation / body weight / body weight gain.
The test system of series [1] is rat. The conditions noted are these: Subchronic dermal toxicity, sprague dawley, Topical, dose end: 13 week, group: systemic, systemic / in life observation / clinical signs / desquamation + systemic / in life observation / clinical signs / erythema + systemic / in ….
Series [2] deals with rat. As to conditions: Prenatal developmental toxicity study, sprague dawley, Oral, Gavage/Intubation, dose end: 15 GD.
The subject of series [3] is mouse. As to conditions: Subchronic oral toxicity in rodents, b6c3f1, Gavage/Intubation, dose end: 13 week, group: systemic.
The subject of series [4] is rat. As to conditions: Subchronic oral toxicity in rodents, fischer, Gavage/Intubation, dose end: 90 day, group: systemic, systemic / clinical chemistry / cholesterol / cholesterol + systemic / in life observation / food consumption / food consumption + systemic….
For series [5], the system named is mouse. The conditions noted are these: Carcinogenicity; cd1; Oral; Gavage/Intubation; dose end: 104 week; group: systemic; systemic / pathology microscopic / gallbladder / adenoma + systemic / pathology microscopic / gallbladder / hemangioma + systemic / ….
Series [6] relates to rat. The conditions noted are these: Chronic toxicity, fischer, Oral, Gavage/Intubation, dose end: 1 year, group: systemic.
Series [7] deals with rat. The conditions noted are these: Prenatal developmental toxicity study, Oral, Gavage/Intubation, dose end: 19 GD.
Series [8] relates to rat. As to conditions: Subchronic oral toxicity in rodents, wistar, Feed, dose end: 90 day, group: systemic, systemic / in life observation / clinical signs / motor activity + systemic / organ weight / kidney / relative to body weight + systemic / ….
Setting [9] is: group: developmental, developmental / developmental malformation / bone / bent + systemic / in life observation / body weight / fetal weight.
[10] abbreviates: group: maternal, systemic / in life observation / body weight / body weight + systemic / in life observation / body weight / body weight gain + systemic / in….
The mark [11] stands for this setting: systemic / clinical chemistry / fatty acids / fatty acid + systemic / pathology microscopic / bone marrow / hypocellularity + systemic / ….
Setting [12] is: systemic / pathology microscopic / liver / hypertrophy.
[13] abbreviates: systemic / in life observation / body weight / body weight.
[14] abbreviates: systemic / in life observation / body weight / body weight + systemic / organ weight / adrenal gland / relative to body weight + systemic / ….
Setting [15] is: group: developmental, systemic / in life observation / body weight / fetal weight + developmental / developmental malformation / bone / unossified + developmental….
[16] abbreviates: group: maternal, reproductive / reproductive performance / resorptions / resorptions + systemic / in life observation / body weight / body weight + systemic….

A value given as a limit tells only on which side of the number the result lay.

In general, LOAEL refers to the lowest tested level that showed an adverse finding. One may read the NOAEL as the highest dose or exposure tested at which no adverse effect was seen. In the series on rabbit, `Cc1cccc(C)c1NC(=O)CC12CCCN1CCC2.Cl` [Pilsicainide hydrochloride] showed an LEL of 10 mg/kg/day, an LOAEL of more than 20 mg/kg/day, an NEL of 5 mg/kg/day and an NOAEL not below 20 mg/kg/day.

Take `CCC(C)(C)c1ccc(O)cc1` [4-(2-Methylbutan-2-yl)phenol]: in the series on rat [1], the LEL was 10 mg/kg/day, the LOAEL came to 10 mg/kg/day, the NEL was found to be 2.5 mg/kg/day and the NOAEL amounted to 2.5 mg/kg/day. In the series on rat [2] (setting [9]), the LEL stood at 500 mg/kg/day, the LOAEL was 500 mg/kg/day, the NEL is 200 mg/kg/day and the no observed adverse effect level (NOAEL) is 200 mg/kg/day. Besides, in the series with rat [2] (setting [10]), the LEL turned out to be 200 mg/kg/day, the LOAEL came out at 200 mg/kg/day, the NEL is 50 mg/kg/day and the no-observed-adverse-effect level (NOAEL) came to 50 mg/kg/day.

Take `Cc1c(C)c2c(c(C)c1O)CCC(C)(COc1ccc(CC3SC(=O)NC3=O)cc1)O2` (centres undefined) [Troglitazone]: the lowest observed adverse effect level (LOAEL) in the series on mouse [3] (setting [11]) was more than 1200 mg/kg/day; in the series with rat [4] it was more than 2500 mg/kg/day; in the series with mouse [5], more than 50 mg/kg/day; with rat [6] (setting [14]), more than 100 mg/kg/day. Further, the NOAEL with mouse [3] (setting [11]) was not below 1200 mg/kg/day; in the series with rat [4], not below 2500 mg/kg/day; in the series with mouse [5] it was not below 50 mg/kg/day; in the series with rat [6] (setting [14]), not below 100 mg/kg/day. Moreover, the LEL was 50 mg/kg/day with mouse [3] (setting [12]), 20 mg/kg/day in the series with rat [4], 50 mg/kg/day in the series on mouse [5] and 25 mg/kg/day in the series on rat [6] (setting [13]). For the same compound, the NEL was less than 50 mg/kg/day in the series with mouse [3] (setting [12]), less than 20 mg/kg/day with rat [4], 4 mg/kg/day in the series with mouse [5] and less than 25 mg/kg/day in the series on rat [6] (setting [13]).

Consider `Cc1cc(Cl)ccc1OCC(=O)OCCCCCC(C)C` [MCPA-isooctyl], for which the LEL with rat [7] (group: developmental, developmental / developmental malformation / bone / ossification sites) was determined as 40 mg/kg/day; in the series with rat [7] (setting [16]), 120 mg/kg/day; with rat [8], 54 mg/kg/day. For the same compound, the LOAEL is 120 mg/kg/day with rat [7] (setting [15]), 120 mg/kg/day in the series with rat [7] (setting [16]) and 54 mg/kg/day with rat [8]. The NEL was 15 mg/kg/day with rat [7] (setting [15]), 40 mg/kg/day with rat [7] (setting [16]) and 5 mg/kg/day in the series on rat [8]. Besides, the no observed adverse effect level (NOAEL) worked out at 40 mg/kg/day with rat [7] (setting [15]), 40 mg/kg/day in the series on rat [7] (setting [16]) and 5 mg/kg/day in the series with rat [8].

These data come from EPA's ToxRefDB 2.
